Tests used:
Type in all cases: biochemical
BTK = target: T1, BTK (Homo sapiens, UniProt Q06187); experiment: Other kinases, inhibition at 1 μM (Table 3)
T1 construct: purchased Caliper Life Sciences
Procedure: (§1) The Aurora and other kinase assays described here were performed on two Caliper Life Sciences systems, the LC3000 and the Desktop Profiler. These provide data on enzyme activity via measurement of the relative amounts of phosphorylated or unphosphorylated fluorescently labelled substrate peptide at the end of an enzymatic reaction. These different states of peptide are resolved by applying a potential difference across the sample. The presence of a charged phosphate group on the product (as opposed to the substrate) causes a different peptide mobility between the two peptides. This is visualized by excitation of a fluorescent label on the substrate and product peptides and represented as peaks within the analysis software.
(§2) The Desktop Profiler utilizes the same principal as the LC 3000 for calculating percentage conversion of a substrate to product. Caliper Life Sciences provided proprietary flash frozen pre-made 384 well plates containing selected kinases. Each column in the 384 well plate contained a particular selected kinase. A second plate, the ‘substrate plate’ contained a mix of fluorescently labeled peptide substrate and ATP. These were arranged in columns so that transfer for substrate plate to enzyme plate provided the correct enzyme with the correct substrate/ATP concentration.
(§3) Compounds were added to a thawed enzyme plate in the desired format, in single concentrations. Reactions were initiated by transfer of the ubstrate/ATP mix from the substrate plate. The enzyme plate was incubated for 90 mins at 25 °C. The reaction was stopped by addition of […] of Stop Buffer (100 mM HEPES pH 7.5, 0.015% Brij-35, 10 mM EDTA (Sigma, E7889)).
(§4) Plates were read in a manner identical to that of the LC3000, and the ratio between substrate and product peaks provided the activity of the enzyme in that well. This was best represented by a plate heat map which colors each well by percent inhibition as compared to positive and negative controls (no inhibitors and no ATP respectively).

MAPKAP-K1-alpha = target: T2, MAPKAP-K1-alpha (Homo sapiens, UniProt Q15418); experiment: Other kinases, inhibition at 1 μM (Table 3)
T2 construct: purchased Caliper Life Sciences
T2 sequence (Q15418 whole entry): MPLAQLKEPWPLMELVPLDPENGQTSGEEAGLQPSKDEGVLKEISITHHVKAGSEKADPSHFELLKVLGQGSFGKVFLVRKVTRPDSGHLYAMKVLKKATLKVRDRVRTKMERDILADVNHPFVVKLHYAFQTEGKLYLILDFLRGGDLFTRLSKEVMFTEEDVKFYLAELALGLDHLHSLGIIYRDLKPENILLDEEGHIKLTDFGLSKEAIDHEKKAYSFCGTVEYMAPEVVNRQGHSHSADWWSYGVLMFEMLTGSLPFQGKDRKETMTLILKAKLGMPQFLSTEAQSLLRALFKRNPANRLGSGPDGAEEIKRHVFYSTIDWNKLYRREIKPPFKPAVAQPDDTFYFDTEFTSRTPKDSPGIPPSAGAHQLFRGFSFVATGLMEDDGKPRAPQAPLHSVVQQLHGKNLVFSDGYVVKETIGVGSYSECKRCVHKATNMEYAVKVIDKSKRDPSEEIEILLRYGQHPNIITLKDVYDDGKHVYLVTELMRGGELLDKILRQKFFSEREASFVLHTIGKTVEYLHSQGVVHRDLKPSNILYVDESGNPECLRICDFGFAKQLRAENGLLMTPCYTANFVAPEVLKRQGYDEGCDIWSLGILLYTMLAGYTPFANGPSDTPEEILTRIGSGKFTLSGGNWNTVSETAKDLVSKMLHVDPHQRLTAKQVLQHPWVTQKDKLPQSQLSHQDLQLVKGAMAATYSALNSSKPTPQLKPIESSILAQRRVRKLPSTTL
Procedure: as §1, §2, §3, §4

Pim-3 = target: T3, Pim-3 (Homo sapiens, UniProt Q86V86); experiment: Other kinases, inhibition at 1 μM (Table 3)
T3 construct: purchased Caliper Life Sciences
Procedure: as §1, §2, §3, §4

CSK = target: T4, CSK (Homo sapiens, UniProt P41240); experiment: Other kinases, inhibition at 1 μM (Table 3)
T4 construct: purchased Caliper Life Sciences
Procedure: as §1, §2, §3, §4

MAPK8 = experiment: Other kinases, inhibition at 1 μM (Table 3)
Procedure: as §1, §2, §3, §4

CK1-delta = target: T5, CK1-delta (Homo sapiens, UniProt P48730); experiment: Other kinases, inhibition at 1 μM (Table 3)
T5 construct: purchased Caliper Life Sciences
T5 sequence (P48730 whole entry): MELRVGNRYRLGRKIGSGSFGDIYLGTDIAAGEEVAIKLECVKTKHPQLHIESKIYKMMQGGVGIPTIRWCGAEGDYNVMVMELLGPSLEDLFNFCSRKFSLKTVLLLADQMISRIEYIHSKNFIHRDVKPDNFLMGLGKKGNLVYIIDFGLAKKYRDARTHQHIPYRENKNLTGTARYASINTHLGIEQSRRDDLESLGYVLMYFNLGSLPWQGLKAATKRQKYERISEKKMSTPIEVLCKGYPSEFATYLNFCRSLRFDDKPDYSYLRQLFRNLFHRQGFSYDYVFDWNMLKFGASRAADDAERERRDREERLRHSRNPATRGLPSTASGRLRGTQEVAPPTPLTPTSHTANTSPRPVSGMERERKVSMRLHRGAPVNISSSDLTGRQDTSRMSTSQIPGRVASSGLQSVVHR
Procedure: as §1, §2, §3, §4

EphB3 = target: T6, EphB3 (Homo sapiens, UniProt P54753); experiment: Other kinases, inhibition at 1 μM (Table 3)
T6 construct: purchased Caliper Life Sciences
Procedure: as §1, §2, §3, §4

PBK = target: T7, PBK (Homo sapiens, UniProt Q96KB5); experiment: Other kinases, inhibition at 1 μM (Table 3)
T7 construct: purchased Caliper Life Sciences
T7 sequence (Q96KB5 whole entry, species assumed): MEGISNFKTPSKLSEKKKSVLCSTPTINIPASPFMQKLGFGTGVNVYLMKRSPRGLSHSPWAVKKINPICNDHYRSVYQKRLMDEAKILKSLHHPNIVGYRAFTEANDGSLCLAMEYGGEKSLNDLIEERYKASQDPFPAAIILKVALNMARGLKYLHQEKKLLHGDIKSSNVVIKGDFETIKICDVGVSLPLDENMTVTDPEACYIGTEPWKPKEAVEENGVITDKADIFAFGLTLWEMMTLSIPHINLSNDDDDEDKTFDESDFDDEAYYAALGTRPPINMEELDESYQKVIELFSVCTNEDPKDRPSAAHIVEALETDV
Procedure: as §1, §2, §3, §4

SRPK1 = target: T8, SRPK1 (Homo sapiens, UniProt Q96SB4); experiment: Other kinases, inhibition at 1 μM (Table 3)
T8 construct: purchased Caliper Life Sciences
Procedure: as §1, §2, §3, §4

YES1 = target: T9, YES1 (Homo sapiens, UniProt P07947); experiment: Other kinases, inhibition at 1 μM (Table 3)
T9 construct: purchased Caliper Life Sciences
T9 sequence (P07947 whole entry, species assumed): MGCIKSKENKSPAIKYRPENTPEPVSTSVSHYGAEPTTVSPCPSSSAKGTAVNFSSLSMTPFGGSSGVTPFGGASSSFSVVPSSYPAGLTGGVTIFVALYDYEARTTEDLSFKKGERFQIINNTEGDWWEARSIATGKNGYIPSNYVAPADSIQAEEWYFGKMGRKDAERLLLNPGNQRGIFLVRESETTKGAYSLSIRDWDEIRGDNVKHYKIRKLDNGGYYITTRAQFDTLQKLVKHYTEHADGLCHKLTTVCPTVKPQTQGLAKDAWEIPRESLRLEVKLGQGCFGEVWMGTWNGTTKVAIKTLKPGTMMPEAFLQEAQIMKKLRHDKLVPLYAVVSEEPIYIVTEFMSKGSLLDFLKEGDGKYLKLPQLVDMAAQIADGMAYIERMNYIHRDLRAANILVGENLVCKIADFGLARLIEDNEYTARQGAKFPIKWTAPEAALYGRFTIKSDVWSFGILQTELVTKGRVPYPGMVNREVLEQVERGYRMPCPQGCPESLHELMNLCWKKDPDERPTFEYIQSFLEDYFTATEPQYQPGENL
Procedure: as §1, §2, §3, §4

ROCK-II = target: T10, ROCK-II (Homo sapiens, UniProt O75116); experiment: Other kinases, inhibition at 1 μM (Table 3)
T10 construct: purchased Caliper Life Sciences
Procedure: as §1, §2, §3, §4

MAPKAP-K2 = target: T11, MAPKAP-K2 (Homo sapiens, UniProt P49137); experiment: Other kinases, inhibition at 1 μM (Table 3)
T11 construct: purchased Caliper Life Sciences
T11 sequence (P49137 whole entry, species assumed): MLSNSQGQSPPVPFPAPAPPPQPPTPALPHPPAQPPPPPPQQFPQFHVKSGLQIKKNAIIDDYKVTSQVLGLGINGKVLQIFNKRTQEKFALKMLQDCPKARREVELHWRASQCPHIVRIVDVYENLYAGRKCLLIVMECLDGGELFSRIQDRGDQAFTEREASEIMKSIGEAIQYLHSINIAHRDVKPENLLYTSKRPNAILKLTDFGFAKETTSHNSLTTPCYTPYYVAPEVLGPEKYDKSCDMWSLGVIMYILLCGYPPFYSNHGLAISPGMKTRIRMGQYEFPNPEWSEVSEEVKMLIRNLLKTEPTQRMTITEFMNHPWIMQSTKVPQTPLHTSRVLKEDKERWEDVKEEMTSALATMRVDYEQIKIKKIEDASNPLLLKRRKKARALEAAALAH
Procedure: as §1, §2, §3, §4

NEK6 = target: T12, NEK6 (Homo sapiens, UniProt Q9HC98); experiment: Other kinases, inhibition at 1 μM (Table 3)
T12 construct: purchased Caliper Life Sciences
Procedure: as §1, §2, §3, §4

Tie2(h) = target: T13, Tie2(h) (Homo sapiens, UniProt Q02763); experiment: Inhibition of other kinases IC50 (Table 2)
T13 construct: purchased Caliper Life Sciences
T13 sequence (Q02763 23-1124): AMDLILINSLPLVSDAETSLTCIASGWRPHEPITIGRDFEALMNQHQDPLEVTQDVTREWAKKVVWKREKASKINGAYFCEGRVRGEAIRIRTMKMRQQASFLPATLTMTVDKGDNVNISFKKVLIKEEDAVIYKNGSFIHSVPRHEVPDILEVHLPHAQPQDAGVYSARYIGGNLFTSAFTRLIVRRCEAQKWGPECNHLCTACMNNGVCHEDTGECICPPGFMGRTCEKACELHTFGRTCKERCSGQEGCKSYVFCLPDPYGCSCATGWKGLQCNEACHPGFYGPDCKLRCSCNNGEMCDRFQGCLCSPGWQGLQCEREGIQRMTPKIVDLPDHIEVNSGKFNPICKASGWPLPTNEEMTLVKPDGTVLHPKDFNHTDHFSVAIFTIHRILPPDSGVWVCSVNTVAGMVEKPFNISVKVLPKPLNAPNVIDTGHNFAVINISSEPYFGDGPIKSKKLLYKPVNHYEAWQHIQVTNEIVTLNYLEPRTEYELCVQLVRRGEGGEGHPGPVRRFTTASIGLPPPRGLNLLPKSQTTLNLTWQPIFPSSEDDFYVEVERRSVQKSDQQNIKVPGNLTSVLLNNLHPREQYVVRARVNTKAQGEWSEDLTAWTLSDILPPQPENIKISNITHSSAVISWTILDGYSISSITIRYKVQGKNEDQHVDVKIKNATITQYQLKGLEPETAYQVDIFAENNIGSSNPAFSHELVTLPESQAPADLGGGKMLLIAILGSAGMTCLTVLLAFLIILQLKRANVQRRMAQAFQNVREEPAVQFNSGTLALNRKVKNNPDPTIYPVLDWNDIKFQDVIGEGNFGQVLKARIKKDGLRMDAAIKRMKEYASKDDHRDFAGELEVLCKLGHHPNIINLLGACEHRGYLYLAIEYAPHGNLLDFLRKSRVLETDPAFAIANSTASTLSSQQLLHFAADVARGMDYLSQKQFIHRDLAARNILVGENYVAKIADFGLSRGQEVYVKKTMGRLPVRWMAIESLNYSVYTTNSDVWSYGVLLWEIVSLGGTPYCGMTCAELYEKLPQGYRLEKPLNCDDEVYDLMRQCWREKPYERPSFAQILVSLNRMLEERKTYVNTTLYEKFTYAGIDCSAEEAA
Procedure: as §1

Pyk2(h) = target: T14, Pyk2(h) (Homo sapiens, UniProt Q14289); experiment: Inhibition of other kinases IC50 (Table 2)
T14 construct: purchased Caliper Life Sciences
Procedure: as §1

IRAK4(h) = target: T15, IRAK4(h) (Homo sapiens, UniProt Q9NWZ3); experiment: Inhibition of other kinases IC50 (Table 2)
T15 construct: purchased Caliper Life Sciences
T15 sequence (Q9NWZ3 1-460): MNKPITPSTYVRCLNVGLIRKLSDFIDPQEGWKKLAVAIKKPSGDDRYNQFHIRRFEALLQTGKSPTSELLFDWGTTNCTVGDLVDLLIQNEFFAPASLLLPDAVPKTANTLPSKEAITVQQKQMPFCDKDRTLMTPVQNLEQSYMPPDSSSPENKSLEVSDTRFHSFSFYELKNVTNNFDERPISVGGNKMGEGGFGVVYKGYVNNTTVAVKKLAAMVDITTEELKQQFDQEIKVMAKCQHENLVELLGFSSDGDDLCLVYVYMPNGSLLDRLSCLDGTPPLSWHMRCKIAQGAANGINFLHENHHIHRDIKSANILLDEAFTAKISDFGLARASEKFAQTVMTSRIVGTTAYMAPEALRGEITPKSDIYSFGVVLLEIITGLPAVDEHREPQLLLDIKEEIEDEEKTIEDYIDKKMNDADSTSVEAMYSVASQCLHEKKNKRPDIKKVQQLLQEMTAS
Procedure: as §1

Ret(h) = target: T16, Ret(h) (Homo sapiens, UniProt P07949); experiment: Inhibition of other kinases IC50 (Table 2)
T16 construct: purchased Caliper Life Sciences
T16 sequence (P07949 29-1114): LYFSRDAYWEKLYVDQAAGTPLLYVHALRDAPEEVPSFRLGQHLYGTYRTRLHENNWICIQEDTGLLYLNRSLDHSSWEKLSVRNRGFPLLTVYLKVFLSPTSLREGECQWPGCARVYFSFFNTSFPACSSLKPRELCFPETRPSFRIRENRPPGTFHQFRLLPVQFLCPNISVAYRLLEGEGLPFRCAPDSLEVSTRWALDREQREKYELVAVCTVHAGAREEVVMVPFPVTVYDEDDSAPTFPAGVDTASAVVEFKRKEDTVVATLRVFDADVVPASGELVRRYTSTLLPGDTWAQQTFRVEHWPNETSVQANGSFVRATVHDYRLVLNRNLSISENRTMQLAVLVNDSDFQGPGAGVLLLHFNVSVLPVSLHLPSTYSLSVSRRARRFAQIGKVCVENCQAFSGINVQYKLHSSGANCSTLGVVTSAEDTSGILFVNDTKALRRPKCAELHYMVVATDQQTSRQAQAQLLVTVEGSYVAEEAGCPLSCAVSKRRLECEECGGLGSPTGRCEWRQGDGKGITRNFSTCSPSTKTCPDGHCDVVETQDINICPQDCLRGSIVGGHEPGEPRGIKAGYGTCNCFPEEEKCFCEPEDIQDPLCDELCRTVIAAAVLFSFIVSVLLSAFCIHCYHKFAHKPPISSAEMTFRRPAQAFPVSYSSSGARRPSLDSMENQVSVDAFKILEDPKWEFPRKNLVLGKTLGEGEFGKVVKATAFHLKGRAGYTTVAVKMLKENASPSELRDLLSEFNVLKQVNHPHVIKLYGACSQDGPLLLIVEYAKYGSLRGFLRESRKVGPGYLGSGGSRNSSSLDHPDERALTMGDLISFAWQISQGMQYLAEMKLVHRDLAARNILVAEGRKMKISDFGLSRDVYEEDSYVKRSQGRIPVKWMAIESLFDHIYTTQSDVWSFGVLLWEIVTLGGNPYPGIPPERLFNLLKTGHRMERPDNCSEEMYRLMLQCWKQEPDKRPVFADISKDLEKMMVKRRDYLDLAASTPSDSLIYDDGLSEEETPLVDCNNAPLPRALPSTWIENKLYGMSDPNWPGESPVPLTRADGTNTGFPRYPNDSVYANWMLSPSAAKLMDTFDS
Procedure: as §1

FAK(h) = target: T17, FAK(h) (Homo sapiens, UniProt Q05397); experiment: Inhibition of other kinases IC50 (Table 2)
T17 construct: purchased Caliper Life Sciences
Procedure: as §1

cSRC(h) = target: T18, cSRC(h) (Homo sapiens, UniProt P12931); experiment: Other kinases, single-concentration inhibition (Table 3); settings: 1 μM
T18 construct: purchased Caliper Life Sciences
Outline: (§5)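 Compound inhibition at one concentration was assessed by monitoring peptide phosphorylation via charge-based separation of fluorescent substrate and product. Incubation lasted 90 min at 25 °C before EDTA stop. Values are percent inhibition relative to no-inhibitor and no-ATP wells.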

p70S6K(h) = target: T19, p70S6K(h) (Homo sapiens, UniProt P23443); experiment: as above; settings: 1 μM
T19 construct: purchased Caliper Life Sciences
Outline: as §5

Yes(h) = target: T20, Yes(h) (Homo sapiens, UniProt P07947); experiment: as above; settings: 1 μM
T20 construct: purchased Caliper Life Sciences
Outline: as §5

CHK2(h) = target: T21, CHK2(h) (Homo sapiens, UniProt O96017); experiment: as above; settings: 1 μM
T21 construct: purchased Caliper Life Sciences
Outline: as §5

CDK2/cyclinA(h) = target: T22, CDK2/cyclinA(h) (Homo sapiens, UniProt P24941); experiment: as above; settings: 1 μM
T22 construct: purchased Caliper Life Sciences
Outline: as §5

PDGFRα(h) = target: T23, PDGFRα(h) (Homo sapiens, UniProt P16234); experiment: as above; settings: 1 μM
T23 construct: purchased Caliper Life Sciences
Outline: as §5

Flt4(h) = target: T24, Flt4(h) (Homo sapiens, UniProt P35916); experiment: as above; settings: 1 μM
T24 construct: purchased Caliper Life Sciences
Outline: as §5

Fms(h) = target: T25, Fms(h) (Homo sapiens, UniProt P07333); experiment: as above; settings: 1 μM
T25 construct: purchased Caliper Life Sciences
Outline: as §5

Abl(T315I)(h) = target: T26, Abl(T315I)(h) (Homo sapiens, UniProt P00519, T315I); experiment: Inhibition of other kinases IC50 (Table 2)
T26 construct: purchased Caliper Life Sciences
Procedure: as §1

| IC50 (Tie2(h)) [µM] | IC50 (IRAK4(h)) [µM] | IC50 (Ret(h)) [µM] | SMILES | % inhibition BTK (BTK) [%] | % inhibition MAPKAP-K1-alpha (MAPKAP-K1-alpha) [%] | % inhibition Pim-3 (Pim-3) [%] | inhibition at 1 µM (CSK) [%] | % inhibition MAPK8 (MAPK8) [%] | % inhibition CK1-delta (CK1-delta) [%] | inhibition at 1 µM (EphB3) [%] | % inhibition PBK (PBK) [%] | inhibition at 1 µM (SRPK1) [%] | inhibition at 1 µM (YES1) [%] | inhibition at 1 µM (ROCK-II) [%] | % inhibition MAPKAP-K2 (MAPKAP-K2) [%] | other results |
| --- | --- | --- | --- | --- | --- | --- | --- | --- | --- | --- | --- | --- | --- | --- | --- | --- |
|  |  |  | Fc1cnc2nc1NC1CCCC(C1)OC/C=C\COc1cccc(c1)N2 (single isomer, unassigned) [Example 33, (16Z)-6-fluoro-14,19-dioxa-2,4,8,26-tetraazatetracyclo[18.3.1.1˜3,7˜0.1˜9,13˜]hexacosa-1(24),3(26),4,6,16,20,22-heptaene] | 37 | 56 | 84 | 86 | 61 | 85 | 54 | 89 | 83 | 49 | 79 | 100 |  |
|  |  |  | NC(=O)[C@H]1[C@H]2C[C@H]3[C@H]1Nc1nc(ncc1F)Nc1cccc(c1)CSS[C@@H]3C2 [Example 10] | 2 | 12 | 63 | 56 | 9 | 92 | 4 | 99 | 65 | 9 | 75 | 88 | % inhibition NEK6 (NEK6): 93% |
| 0.101 to 1 | 0.101 to 1 | 0.101 to 1 | NC(=O)[C@H]1[C@H]2C[C@H]3[C@H]1Nc1nc(ncc1F)Nc1cccc(c1)OCCS[C@@H]3C2 [Example 20] |  |  |  |  |  |  |  |  |  |  |  |  | IC50 (Pyk2(h)): 0.101 to 1 µM; IC50 (FAK(h)): 0.101 to 1 µM |
|  |  |  | CN1CCN(c2ccc3cc2OCCS[C@@H]2C[C@@H]4C[C@H]2[C@@H](Nc2nc(ncc2F)N3)[C@H]4C(N)=O)CC1 [Example 22] |  |  |  |  |  |  |  |  |  |  |  |  | % inhibition cSRC(h) (cSRC(h)): 16%; % inhibition p70S6K(h) (p70S6K(h)): 83%; % inhibition Yes(h) (Yes(h)): 2%; % inhibition CHK2(h) (CHK2(h)): 64%; % inhibition CDK2/cyclinA(h) (CDK2/cyclinA(h)): 96%; % inhibition PDGFRα(h) (PDGFRα(h)): 87%; % inhibition Flt4(h) (Flt4(h)): 11%; % inhibition Fms(h) (Fms(h)): 82% |
| 0.101 to 1 | 0.001 to 0.1 | 0.001 to 0.1 | NC(=O)[C@H]1[C@H]2C[C@H]3[C@H]1Nc1nc(ncc1F)Nc1cccc(c1)NC(=O)CS[C@@H]3C2 [Example 27] |  |  |  |  |  |  |  |  |  |  |  |  | IC50 (Abl(T315I)(h)): 0.001 to 0.1 µM |

Source: patent US8815872B2, “Macrocyclics pyrimidines as aurora kinase inhibitors” (Merck Patent GmbH, priority 2008, dated 2014)
